# Reference: PubChem BioAssay AID220 (DTP/NCI, 2004)
# Several values for one entry are separate records, joined by “and”; a condition that tells them apart may be missing. Equal values may be shown once. Inconclusive results are not listed.
# Test system: CD8F1 mice, subcutaneous mammary adenocarcinoma, T/C%
# Experiment: NCI In Vivo Anticancer Drug Screen. Data for tumor model Mammary Adenocarcinoma CD8F1 (subcutaneous) in CD8F1
# Settings: higher = larger tumour
# Procedure, shortened: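 Ratio of treated to vehicle-control outcome, based on either survival or tumor size, in mice bearing transplantable tumors given the test compound.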
# [1] = endpoint: median tumor weight change, dose: 250.0 mg/kg/injection, schedule: Q01DX001 (ip), vehicle: Klucel (hydroxypropylcellulose) (HPC)
# [2] = endpoint: median tumor weight change, dose: 25.0 mg/kg/injection, schedule: Q01DX001 (ip), vehicle: suspension in saline
smiles,measurement,setting,value
Nc1nc(-c2cccc3ccccc23)cc2ccccc12,T/C,"endpoint: median tumor weight (est.), dose: 50.0 mg/kg/injection, schedule: Q07DX005 (ip), vehicle: saline with Tween-80",53 % of control
same,T/C,"endpoint: median tumor weight (est.), dose: 100.0 mg/kg/injection, schedule: Q07DX005 (ip), vehicle: saline with Tween-80",81 % of control
same,T/C,"endpoint: median tumor weight (est.), dose: 200.0 mg/kg/injection, schedule: Q07DX005 (ip), vehicle: saline with Tween-80",37 % of control
O=CC(NC(=O)N(CCCl)N=O)C(O)C(O)C(O)CO (centres undefined),T/C,"endpoint: mean tumor weight, dose: 1.5 mg/kg/injection, schedule: Q02DX008 (ip), vehicle: saline",58 % of control
same,T/C,"endpoint: mean tumor weight, dose: 3.0 mg/kg/injection, schedule: Q02DX008 (ip), vehicle: saline",24 % of control
same,T/C,"endpoint: mean tumor weight, dose: 6.0 mg/kg/injection, schedule: Q02DX008 (ip), vehicle: saline",31 % of control
same,T/C,"endpoint: median tumor weight (est.), dose: 1.5 mg/kg/injection, schedule: Q07DX005 (ip), vehicle: saline",175 % of control
same,T/C,"endpoint: median tumor weight (est.), dose: 3.0 mg/kg/injection, schedule: Q07DX005 (ip), vehicle: saline",107 % of control
same,T/C,"endpoint: median tumor weight (est.), dose: 6.0 mg/kg/injection, schedule: Q07DX005 (ip), vehicle: saline",53 % of control
same,T/C,"endpoint: median tumor weight (est.), dose: 12.0 mg/kg/injection, schedule: Q07DX005 (ip), vehicle: saline",14 % of control
same,T/C,"endpoint: median tumor weight (est.), dose: 24.0 mg/kg/injection, schedule: Q07DX005 (ip), vehicle: saline",13 % of control
CN=C(NC#N)NCCSCc1nc[nH]c1C,T/C,[1],57 % of control
NC(=O)c1c[se]c(C2OC(CO)C(O)C2O)n1 (centres undefined),T/C,"endpoint: median tumor weight change, dose: 50.0 mg/kg/injection, schedule: Q01DX001 (ip), vehicle: water",124 % of control
same,T/C,"endpoint: median tumor weight change, dose: 75.0 mg/kg/injection, schedule: Q01DX001 (ip), vehicle: water",45 % of control
same,T/C,"endpoint: median tumor weight change, dose: 100.0 mg/kg/injection, schedule: Q01DX001 (ip), vehicle: water",83 % of control
same,T/C,"endpoint: median tumor weight change, dose: 150.0 mg/kg/injection, schedule: Q01DX001 (ip), vehicle: water",73 % of control
same,T/C,"endpoint: median tumor weight change, dose: 200.0 mg/kg/injection, schedule: Q01DX001 (ip), vehicle: water",89 % of control
same,T/C,"endpoint: median tumor weight change, dose: 300.0 mg/kg/injection, schedule: Q01DX001 (ip), vehicle: water",47 % of control
same,T/C,"endpoint: median tumor weight change, dose: 400.0 mg/kg/injection, schedule: Q01DX001 (ip), vehicle: water",95 % of control
same,T/C,"endpoint: median tumor weight change, dose: 600.0 mg/kg/injection, schedule: Q01DX001 (ip), vehicle: water",43 % of control
same,T/C,"endpoint: median tumor weight change, dose: 1200.0 mg/kg/injection, schedule: Q01DX001 (ip), vehicle: water",50 % of control
CCC/C=C/C=C/C(=O)OC1/C(=C/C(=O)OC)CC2CC(C(C)O)OC(=O)CC(O)CC3CC(OC(C)=O)C(C)(C)C(O)(CC4C/C(=C/C(=O)OC)CC(/C=C/C(C)(C)C1(O)O2)O4)O3 (centres undefined),T/C,"endpoint: median tumor weight change, dose: 0.02 mg/kg/injection, schedule: Q01DX001 (ip), vehicle: saline + alcohol",63 % of control
same,T/C,"endpoint: median tumor weight change, dose: 0.04 mg/kg/injection, schedule: Q01DX001 (ip), vehicle: saline + alcohol",115 % of control
same,T/C,"endpoint: median tumor weight change, dose: 0.09 mg/kg/injection, schedule: Q01DX001 (ip), vehicle: saline + alcohol",95 % of control
same,T/C,"endpoint: median tumor weight change, dose: 0.19 mg/kg/injection, schedule: Q01DX001 (ip), vehicle: saline + alcohol",22 % of control
CN(C)N=Nc1cccc(C(N)=O)c1,T/C,"endpoint: median tumor weight (est.), dose: 20.0 mg/kg/injection, schedule: Q07DX005 (ip), vehicle: Klucel (hydroxypropylcellulose) (HPC)",80 % of control
same,T/C,"endpoint: median tumor weight (est.), dose: 160.0 mg/kg/injection, schedule: Q07DX005 (ip), vehicle: Klucel (hydroxypropylcellulose) (HPC)",54 % of control
Nc1ncnc2c1nnn2C1OC(CO)C(O)C1O (centres undefined),T/C,"endpoint: median tumor weight change, dose: 62.5 mg/kg/injection, schedule: Q01DX001 (ip), vehicle: Klucel (hydroxypropylcellulose) (HPC)",111 % of control
same,T/C,[1],39 % of control and 40 % of control
CC(C)(C)N1CC1CNC(=O)C(=O)NCC1CN1C(C)(C)C (centres undefined),T/C,"endpoint: median tumor weight change, dose: 15.6 mg/kg/injection, schedule: Q01DX001 (ip), vehicle: saline with Tween-80",50 % of control
same,T/C,"endpoint: median tumor weight change, dose: 15.62 mg/kg/injection, schedule: Q01DX001 (ip), vehicle: saline with Tween-80",30 % of control
same,T/C,"endpoint: median tumor weight change, dose: 31.25 mg/kg/injection, schedule: Q01DX001 (ip), vehicle: saline with Tween-80",30 % of control and 37 % of control
CCN1/C(=C/C=C/C=C/c2sc3ccccc3[n+]2CC)Sc2ccccc21,T/C,"endpoint: median tumor weight (est.), dose: 0.37 mg/kg/injection, schedule: Q07DX006 (ip), vehicle: saline",77 % of control
same,T/C,"endpoint: median tumor weight (est.), dose: 0.75 mg/kg/injection, schedule: Q07DX006 (ip), vehicle: saline",233 % of control
CC(C)CCC(=O)c1ccoc1,T/C,"endpoint: median tumor weight change, dose: 0.31 mg/kg/injection, schedule: Q03HX003 (ip), vehicle: saline with Tween-80",90 % of control
same,T/C,"endpoint: median tumor weight change, dose: 0.62 mg/kg/injection, schedule: Q03HX003 (ip), vehicle: saline with Tween-80",102 % of control
same,T/C,"endpoint: median tumor weight change, dose: 1.25 mg/kg/injection, schedule: Q03HX003 (ip), vehicle: saline with Tween-80",103 % of control
C/C=C(\C)c1cc(=O)c2c(C)cc3c(c2o1)C(=O)c1c(O)c(C2CC(C)(N(C)C)C(OC(C)=O)C(C)O2)cc(C2CC(N(C)C)C(O)C(C)O2)c1C3=O (centres undefined),T/C,"endpoint: median tumor weight (est.), dose: 0.15 mg/kg/injection, schedule: Q07DX005 (ip), vehicle: saline",157 % of control
same,T/C,"endpoint: median tumor weight (est.), dose: 0.31 mg/kg/injection, schedule: Q07DX005 (ip), vehicle: saline",100 % of control
same,T/C,"endpoint: median tumor weight (est.), dose: 0.62 mg/kg/injection, schedule: Q07DX005 (ip), vehicle: saline",116 % of control
same,T/C,"endpoint: median tumor weight change, dose: 1.56 mg/kg/injection, schedule: Q01DX001 (ip), vehicle: suspension in saline",164 % of control
same,T/C,"endpoint: median tumor weight change, dose: 3.12 mg/kg/injection, schedule: Q01DX001 (ip), vehicle: suspension in saline",153 % of control
same,T/C,"endpoint: median tumor weight change, dose: 6.25 mg/kg/injection, schedule: Q01DX001 (ip), vehicle: suspension in saline",116 % of control
same,T/C,"endpoint: median tumor weight change, dose: 12.5 mg/kg/injection, schedule: Q01DX001 (ip), vehicle: suspension in saline",82 % of control
same,T/C,[2],64 % of control
C[C@]12C=CC(=O)C=C1CC[C@@H]1[C@@H]2[C@@H](O)C[C@@]2(C)[C@H]1CC[C@]2(O)C(=O)CO,T/C,"endpoint: median tumor weight change, dose: 100.0 mg/kg/injection, schedule: Q01DX001 (ip), vehicle: Klucel (hydroxypropylcellulose) (HPC)",111 % of control
same,T/C,"endpoint: median tumor weight change, dose: 200.0 mg/kg/injection, schedule: Q01DX001 (ip), vehicle: Klucel (hydroxypropylcellulose) (HPC)",67 % of control and 87 % of control and 90 % of control
same,T/C,"endpoint: median tumor weight change, dose: 800.0 mg/kg/injection, schedule: Q01DX001 (ip), vehicle: Klucel (hydroxypropylcellulose) (HPC)",32 % of control and 38 % of control and 52 % of control
same,T/C,"endpoint: median tumor weight change, dose: 1600.0 mg/kg/injection, schedule: Q01DX001 (ip), vehicle: Klucel (hydroxypropylcellulose) (HPC)",14 % of control
C=C(C)[C@@H]1CCc2c(O)c(O)c(=O)cc(C)c2C1,T/C,"endpoint: median tumor weight change, dose: 31.0 mg/kg/injection, schedule: Q01DX001 (ip), vehicle: saline with Tween-80",83 % of control
same,T/C,"endpoint: median tumor weight change, dose: 62.0 mg/kg/injection, schedule: Q01DX001 (ip), vehicle: saline with Tween-80",57 % of control
same,T/C,"endpoint: median tumor weight change, dose: 125.0 mg/kg/injection, schedule: Q01DX001 (ip), vehicle: saline with Tween-80",88 % of control
same,T/C,"endpoint: median tumor weight change, dose: 250.0 mg/kg/injection, schedule: Q01DX001 (ip), vehicle: saline with Tween-80",57 % of control
same,T/C,"endpoint: median tumor weight change, dose: 500.0 mg/kg/injection, schedule: Q01DX001 (ip), vehicle: saline with Tween-80",93 % of control
COC(=O)Nc1nc2ccc(C3(c4ccc(F)cc4)OCCO3)cc2[nH]1,T/C,"endpoint: median tumor weight change, dose: 125.0 mg/kg/injection, schedule: Q01DX001 (ip), vehicle: saline",99 % of control
same,T/C,"endpoint: median tumor weight change, dose: 125.0 mg/kg/injection, schedule: Q01DX001 (ip), vehicle: suspension in saline",152 % of control
same,T/C,"endpoint: median tumor weight change, dose: 250.0 mg/kg/injection, schedule: Q01DX001 (ip), vehicle: suspension in saline",67 % of control
same,T/C,"endpoint: median tumor weight change, dose: 500.0 mg/kg/injection, schedule: Q01DX001 (ip), vehicle: suspension in saline",153 % of control
same,T/C,"endpoint: median tumor weight change, dose: 1000.0 mg/kg/injection, schedule: Q01DX001 (ip), vehicle: suspension in saline",93 % of control
CCc1ncnc2cc(OCC3CO3)c(OC)cc12 (centres undefined),T/C,[2],118 % of control
same,T/C,"endpoint: median tumor weight change, dose: 50.0 mg/kg/injection, schedule: Q01DX001 (ip), vehicle: suspension in saline",110 % of control
same,T/C,"endpoint: median tumor weight change, dose: 100.0 mg/kg/injection, schedule: Q01DX001 (ip), vehicle: suspension in saline",35 % of control
same,T/C,"endpoint: median tumor weight change, dose: 400.0 mg/kg/injection, schedule: Q01DX001 (ip), vehicle: suspension in saline",93 % of control
CC(=O)OC1COC(NC(=O)N(CCCl)N=O)C(OC(C)=O)C1OC(C)=O (centres undefined),T/C,"endpoint: median tumor weight (est.), dose: 1.5 mg/kg/injection, schedule: Q07DX004 (ip), vehicle: saline with Tween-80",32 % of control
same,T/C,"endpoint: median tumor weight (est.), dose: 3.0 mg/kg/injection, schedule: Q07DX004 (ip), vehicle: saline with Tween-80",103 % of control
same,T/C,"endpoint: median tumor weight (est.), dose: 6.0 mg/kg/injection, schedule: Q07DX004 (ip), vehicle: saline with Tween-80",35 % of control
same,T/C,"endpoint: median tumor weight (est.), dose: 6.0 mg/kg/injection, schedule: Q07DX005 (ip), vehicle: saline with Tween-80",103 % of control
same,T/C,"endpoint: median tumor weight (est.), dose: 12.0 mg/kg/injection, schedule: Q07DX005 (ip), vehicle: saline with Tween-80",68 % of control
same,T/C,"endpoint: median tumor weight (est.), dose: 24.0 mg/kg/injection, schedule: Q07DX005 (ip), vehicle: saline with Tween-80",46 % of control
